Each structure is given as a SMILES string.

For series [1], the system named is NLRP3-dependent pyroptosis in differentiated THP-1 cells. Nature of the series: NLRP3-dependent pyroptosis (LDH release) in PMA-differentiated, LPS-primed, ATP-triggered THP-1 cells. Format: cell-based, human. The following applies: for Pyroptosis Decrease, % inhibition at 10 µM / inhibition at 10 µM: 10 µM test compound, 1 h before ATP (5 mM, 90 min), vs vehicle-treated cells, mean ± SEM, NA = not active at 10 µM; for inhibition at 1 µM / inhibition at 10 µM: Homo sapiens; for inhibition at 1 µM: THP-1, 1 µM test compound (Figure 3); for inhibition at 10 µM: THP-1, 1.5 h, read-out: Pyroptosis Decrease, % inhibition at 10 µM.

Series [2] relates to IL-1β release in differentiated THP-1 cells. Kind of series: IL-1β release (ELISA) in supernatants of LPS/ATP-treated differentiated THP-1 cells. Format: cell-based, human. The following applies: same experiments as pyroptosis, vs vehicle-treated cells, mean ± SEM; for inhibition at 10 µM: Homo sapiens, THP-1, 10 µM test compound. The protocol: Different techniques could be used to study NLRP3 inhibitors; the use of differentiated THP-1 cells treated with NLRP3 activating stimuli is suitable for the screening of large series of compounds [48]. All the synthesised compounds (Figure 2) were evaluated for their NLRP3 inhibitory activity by measuring their ability to prevent NLRP3-dependent pyroptosis in differentiated THP-1 cells. THP-1 cells were differentiated into macrophages by treatment with phorbol-myristate acetate (PMA; 50 nM; 24 h) and then treated with lipopolysaccharide (LPS; 10 µg/mL; 4 h) to promote NLRP3 expression. The cells were then incubated with test compounds at the fixed concentration of 10 µM for 1 h. Test compounds were dissolved in serum free medium containing 0.1% DMSO as the vehicle. NLRP3 was activated by the addition of ATP (5 mM), and the pyroptotic cell death was evaluated after 1.5 h by measuring the lactate dehydrogenase (LDH) released in the cell supernatants. The obtained results, expressed as pyroptosis% decrease with respect to vehicle-treated cells, are collected in Table 1. In the same experiments, the release of IL-1β was measured via an ELISA assay and the results, expressed as % inhibition of IL-1β release versus vehicle-treated cells, are reported in Table 1. Finally, the cytotoxicity of the synthesised compounds was evaluated by MTT assay after treatment of THP-1 cells with increasing concentration of test compounds (0.1–100 µM) for 72 h. […] The structural modulation of compound 2 was then carried out in order to understand whether it was possible to restore/increase the activity without the re-introduction of a Michael acceptor substructure.
Human myelomonocytic THP-1 cells were cultured in RPMI 1640 medium (Aurogene, Rome, Italy) supplemented with fetal bovine serum (10%; Aurogene), L-glutamine (2 mM; Aurogene), penicillin (100 IU/mL; Aurogene) and streptomycin ([…]; Aurogene). Cell culture medium was replaced every 2−3 days, and the cultures were maintained at 37 °C and 5% CO2 in a fully humidified incubator. The day before each experiment, cells were plated in 48-well culture plates (90.000 cells/well) and were differentiated by treatment with PMA (50 nM, 24 h; Sigma-Aldrich). PMA-differentiated THP-1 cells were washed twice with phosphate-buffered saline (PBS) and primed with LPS (10 μg/mL, 4 h; Sigma-Aldrich) in serum-free medium. Cells were then incubated with compounds dissolved in medium containing 0.1% DMSO for 1 h and cell death was triggered with ATP (5 mM, 90 min; Sigma-Aldrich). MCC950 (Sigma-Aldrich batch #45216 and batch #85021 and from Crysdot (product n. CD31002496; OS05876-18070932) was used in the experiments.
IL-1β release was quantified in differentiated THP-1 supernatant, obtained as previously described, using Human IL-1 beta Uncoated ELISA kit (Invitrogen, Waltham, MA, USA), according to the manufacture’s instruction.

A further series addresses T1, human recombinant NLRP3 (Homo sapiens, UniProt Q96P20).
T1 construct: made in house; host or cells: HEK293T cells (transient transfection, captured from lysate on GFP-Trap Sepharose)
Kind of series: In vitro NLRP3 ATPase activity, on-bead ADP-Glo assay with immobilised NLRP3-GFP. It counts as biochemical. The note with it: for Inhibition of NLRP3 ATPase activity (% reduction in ATP hydrolysis relative to vehicle control) / inhibition at 100 µM: 100 μM compound, ATP 800 μM, mean ± SEM, n = 4; for inhibition at 100 µM: read-out: Inhibition of NLRP3 ATPase activity (% reduction in ATP hydrolysis relative to vehicle control); for NLRP3 ATPase inhibition at 1 mM compared with 100 µM: 1 mM vs 100 µM compound, data not shown.

The subject of a further series is THP-1 cells. The following applies: 72 h treatment, 0.1–100 µM, MTT; TC50 ± SEM of three experiments.
The subject of the next series is DNBS-induced colitis. Also noted: method as in PMID 28410442, PMID 30559669. The note with it: oral administration in mice at both 50 and 25 mg/kg; cited from earlier work.
Series [3] deals with isolated recombinant NLRP3. Also noted: method as in PMID 28410442. The following applies: cited from earlier work.

T1 sequence (Q96P20 whole entry): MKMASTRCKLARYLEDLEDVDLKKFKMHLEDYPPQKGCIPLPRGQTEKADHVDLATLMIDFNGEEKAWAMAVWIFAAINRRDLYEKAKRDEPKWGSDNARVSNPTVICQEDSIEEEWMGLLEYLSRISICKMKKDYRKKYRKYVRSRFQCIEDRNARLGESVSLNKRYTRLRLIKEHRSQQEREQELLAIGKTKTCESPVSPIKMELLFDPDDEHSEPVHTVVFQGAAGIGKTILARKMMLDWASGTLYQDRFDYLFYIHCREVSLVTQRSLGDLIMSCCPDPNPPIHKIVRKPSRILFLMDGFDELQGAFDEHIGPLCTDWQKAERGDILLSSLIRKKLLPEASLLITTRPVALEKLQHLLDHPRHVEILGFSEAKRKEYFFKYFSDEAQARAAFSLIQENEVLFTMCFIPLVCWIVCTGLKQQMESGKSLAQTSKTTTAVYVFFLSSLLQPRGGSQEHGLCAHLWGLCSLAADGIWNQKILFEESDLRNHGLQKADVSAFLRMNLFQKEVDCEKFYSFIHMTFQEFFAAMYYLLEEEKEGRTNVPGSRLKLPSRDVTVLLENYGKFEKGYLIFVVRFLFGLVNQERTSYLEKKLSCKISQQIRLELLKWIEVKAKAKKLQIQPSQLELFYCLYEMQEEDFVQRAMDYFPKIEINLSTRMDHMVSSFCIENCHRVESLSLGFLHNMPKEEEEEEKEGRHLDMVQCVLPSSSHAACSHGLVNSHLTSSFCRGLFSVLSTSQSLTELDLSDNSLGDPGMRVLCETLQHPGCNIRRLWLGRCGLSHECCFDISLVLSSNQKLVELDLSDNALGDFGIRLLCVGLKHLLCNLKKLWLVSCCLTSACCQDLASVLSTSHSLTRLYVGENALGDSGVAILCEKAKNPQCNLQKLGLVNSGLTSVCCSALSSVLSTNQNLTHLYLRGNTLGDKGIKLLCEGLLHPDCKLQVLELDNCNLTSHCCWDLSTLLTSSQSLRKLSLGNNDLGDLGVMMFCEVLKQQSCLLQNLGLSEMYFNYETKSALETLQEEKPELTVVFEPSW

`N#CN=C(NCc1ccccc1)NC1CCN(C(=O)CCc2ccccc2Cl)CC1` [Compound 13, 1-benzyl-3-(1-(3-(2-chlorophenyl)propanoyl)piperidin-4-yl)-2-cyanoguanidine]: in series [1], the “Pyroptosis Decrease, % inhibition at 10 µM” value is listed as “able to inhibit”; the inhibition at 1 µM was 20 to 30%; the inhibition at 10 µM worked out at 45 ± 8.8%. For the same molecule, the “IL-1β Inhibition, % inhibition at 10 µM” value in series [2] (10 µM test compound, 10 µM) is recorded as “able to inhibit”. Also, the inhibition at 10 µM in series [2] came out at 25.2 ± 4.9%. Further, at human recombinant NLRP3, the “Inhibition of NLRP3 ATPase activity (% reduction in ATP hydrolysis relative to vehicle control)” value is listed as “significant inhibition of ATPase activity”, the inhibition at 100 µM is 26.5 ± 3.1% and the “NLRP3 ATPase inhibition at 1 mM compared with 100 µM” value was “no significant differences”. Further, in the series with THP-1 cells, the “Cytotoxicity TC50” value is reported as 85.7 ± 5.6 µM.
As to `CCOC(=O)Cn1c(=O)n(C(=O)CCc2ccccc2Cl)c2ccccc21` [Compound 17, Ethyl 2-(3-(3-(2-chlorophenyl)propanoyl)-2-oxo-2,3-dihydro-1H-benzo[d]-imidazol-1-yl)acetate], the inhibition at 10 µM in series [1] was determined as 25.1 ± 4%; in series [2], 24.2 ± 11.2%. For the same molecule, the “Inhibition of NLRP3 ATPase activity (% reduction in ATP hydrolysis relative to vehicle control)” value at human recombinant NLRP3 was “inactive”. The “Cytotoxicity TC50” value with THP-1 cells came to 95.4 ± 1.1 µM.
As for `O=C(O)Cn1c(=O)n(C(=O)CCc2ccccc2Cl)c2ccccc21` [Compound 18, 2-(3-(3-(2-chlorophenyl)propanoyl)-2-oxo-2,3-dihydro-1H-benzo[d]-imidazol-1-yl)acetic acid], in series [1], the “Pyroptosis Decrease, % inhibition at 10 µM” value is given as “active”; the inhibition at 1 µM was 20 to 30%; the inhibition at 10 µM amounted to 36.4 ± 11.1%. Also, the inhibition at 10 µM in series [2] worked out at 21.1 ± 3.1%. Also, at human recombinant NLRP3, the “Inhibition of NLRP3 ATPase activity (% reduction in ATP hydrolysis relative to vehicle control)” value is “able to reduce ATPase activity”, the inhibition at 100 µM is 27.2 ± 6.3% and the “NLRP3 ATPase inhibition at 1 mM compared with 100 µM” value is listed as “no significant differences”. The “Cytotoxicity TC50” value in the series with THP-1 cells is given as greater than 100 µM.
On to `O=C(CCc1ccccc1Cl)n1c(=O)n(Cc2nn[nH]n2)c2ccccc21` [Compound 19, 1-((2H-tetrazol-5-yl)methyl)-3-(3-(2-chlorophenyl)propanoyl)-1,3-dihydro-2H-benzo[d]imidazol-2-one], for which the inhibition at 10 µM in series [1] was 26.2 ± 1.6%; in series [2], less than 10%. For the same molecule, the “Inhibition of NLRP3 ATPase activity (% reduction in ATP hydrolysis relative to vehicle control)” value at human recombinant NLRP3 is given as “reduced the inhibitory potential”. For the same molecule, the “Cytotoxicity TC50” value in the series with THP-1 cells is greater than 100 µM.
`C=C(Cc1ccccc1Cl)C(=O)OCC` [INF39]: in the series with DNBS-induced colitis, the “Prevention of DNBS-induced colitis” value was “able to prevent DNBS-induced colitis”. Also, in series [3], the “Inhibition of ATP hydrolysis by NLRP3” value is listed as “inhibited ATP hydrolysis”.

The record behind these values is publication PMC8271538, “Chemical Modulation of the 1-(Piperidin-4-yl)-1,3-dihydro-2H-benzo[d]imidazole-2-one Scaffold as a Novel NLRP3 Inhibitor” (Molecules, 2021).
